Data taken from paper PMC5031918 (Journal of Antimicrobial Chemotherapy, 2016).
“Also recorded” adds a separate entry of the source. Like-named read-outs stand apart in the source and are kept apart here. Values belong to the compound of their own block, whether it stands above or below them.

Experiments:
[1] = system: primary CD4+ T cells; test: Calcein accumulation/efflux in primary CD4+ T cells, flow cytometry; assay type: cell-based, human
[2] = system: CEM-WT (CEM-CCRF) cells; test: Calcein-AM fluorescence accumulation assay, flow cytometry, CEM-WT cells; assay type: cell-based, human; details: antiviral drug at 100 μM, calcein-AM 0.25 μM
[3] = molecular target: T1, MRP1 (ABCC1), CEM-MRP1 cells (Homo sapiens, UniProt P33527); test: Calcein-AM fluorescence accumulation assay, flow cytometry, CEM-MRP1 cells; assay type: cell-based; details: antiviral drug at 100 μM, calcein-AM 0.25 μM
[4] = system: CEM-WT cells; test: [3H]raltegravir cellular accumulation ratio; assay type: in vitro ADME, human; details: 30 min; for Effect of efflux inhibitor on [3H]raltegravir CAR: MK571 100 μM, XR9051 10 μM or 1 μM (Figure 1a); for Effect of 100 μM cold drug (cis inhibitor) on [3H]raltegravir CAR / CAR of raltegravir: [3H]raltegravir 1 μM
[5] = molecular target: T2, P-gp (ABCB1), CEM-P-gp cells (Homo sapiens, UniProt P08183); test: [3H]raltegravir cellular accumulation ratio; assay type: in vitro ADME; details: 30 min
[6] = molecular target: T1, MRP1 (ABCC1), CEM-MRP1 cells; test: [3H]ritonavir cellular accumulation ratio; assay type: in vitro ADME; details: for Increase of the CAR of [3H]ritonavir by 100 μM cold drug: [3H]ritonavir 1 μM, 30 min
[7] = molecular target: T1, MRP1 (ABCC1), CEM-MRP1 cells; test: [3H]raltegravir cellular accumulation ratio; details: 30 min; for Effect of 100 μM cold drug (cis inhibitor) on [3H]raltegravir CAR: [3H]raltegravir 1 μM
[8] = molecular target: T2, P-gp (ABCB1), CEM-P-gp cells; test: [3H]ritonavir cellular accumulation ratio; assay type: in vitro ADME; details: reversan 10 μM, P = 0.0021
[9] = molecular target: P-gp, primary CD3+CD4+ T cells (Homo sapiens, UniProt P08183); assay type: in vitro ADME; details: XR9051 1 μM, P = 0.017
Sequence of P-gp, primary CD3+CD4+ T cells (P08183 whole entry): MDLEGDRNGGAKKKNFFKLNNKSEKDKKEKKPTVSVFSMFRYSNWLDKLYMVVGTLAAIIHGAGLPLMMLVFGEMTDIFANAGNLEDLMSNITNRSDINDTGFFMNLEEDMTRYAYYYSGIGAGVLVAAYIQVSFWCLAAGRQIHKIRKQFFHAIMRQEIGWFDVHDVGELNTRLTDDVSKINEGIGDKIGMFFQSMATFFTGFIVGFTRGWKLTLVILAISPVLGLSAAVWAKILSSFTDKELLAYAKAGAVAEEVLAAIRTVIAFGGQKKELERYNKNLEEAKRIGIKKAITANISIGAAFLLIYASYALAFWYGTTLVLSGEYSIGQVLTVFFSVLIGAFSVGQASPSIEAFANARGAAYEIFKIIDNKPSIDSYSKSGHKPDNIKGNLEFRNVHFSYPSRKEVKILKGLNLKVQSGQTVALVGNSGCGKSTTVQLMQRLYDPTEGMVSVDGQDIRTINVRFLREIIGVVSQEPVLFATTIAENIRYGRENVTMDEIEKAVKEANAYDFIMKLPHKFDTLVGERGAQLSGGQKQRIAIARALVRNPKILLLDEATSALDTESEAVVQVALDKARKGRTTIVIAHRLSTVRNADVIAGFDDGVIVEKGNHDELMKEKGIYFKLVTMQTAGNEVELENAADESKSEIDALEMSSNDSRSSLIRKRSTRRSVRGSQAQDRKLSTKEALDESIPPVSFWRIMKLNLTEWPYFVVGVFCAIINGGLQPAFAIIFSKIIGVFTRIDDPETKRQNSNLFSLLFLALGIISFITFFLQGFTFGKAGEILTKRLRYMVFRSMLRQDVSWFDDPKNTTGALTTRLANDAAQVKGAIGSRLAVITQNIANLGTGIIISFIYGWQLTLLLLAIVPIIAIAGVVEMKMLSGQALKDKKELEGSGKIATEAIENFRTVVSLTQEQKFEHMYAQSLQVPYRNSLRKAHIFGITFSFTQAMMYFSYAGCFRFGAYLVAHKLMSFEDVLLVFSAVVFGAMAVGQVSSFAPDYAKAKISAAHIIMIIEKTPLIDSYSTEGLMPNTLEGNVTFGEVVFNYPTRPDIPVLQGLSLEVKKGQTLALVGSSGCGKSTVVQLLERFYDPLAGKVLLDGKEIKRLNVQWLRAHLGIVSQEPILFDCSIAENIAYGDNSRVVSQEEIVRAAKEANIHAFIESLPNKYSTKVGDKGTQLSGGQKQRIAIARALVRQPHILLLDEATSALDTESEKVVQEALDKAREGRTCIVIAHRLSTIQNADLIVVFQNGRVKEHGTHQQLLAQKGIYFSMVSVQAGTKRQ

T1 sequence (P33527 whole entry): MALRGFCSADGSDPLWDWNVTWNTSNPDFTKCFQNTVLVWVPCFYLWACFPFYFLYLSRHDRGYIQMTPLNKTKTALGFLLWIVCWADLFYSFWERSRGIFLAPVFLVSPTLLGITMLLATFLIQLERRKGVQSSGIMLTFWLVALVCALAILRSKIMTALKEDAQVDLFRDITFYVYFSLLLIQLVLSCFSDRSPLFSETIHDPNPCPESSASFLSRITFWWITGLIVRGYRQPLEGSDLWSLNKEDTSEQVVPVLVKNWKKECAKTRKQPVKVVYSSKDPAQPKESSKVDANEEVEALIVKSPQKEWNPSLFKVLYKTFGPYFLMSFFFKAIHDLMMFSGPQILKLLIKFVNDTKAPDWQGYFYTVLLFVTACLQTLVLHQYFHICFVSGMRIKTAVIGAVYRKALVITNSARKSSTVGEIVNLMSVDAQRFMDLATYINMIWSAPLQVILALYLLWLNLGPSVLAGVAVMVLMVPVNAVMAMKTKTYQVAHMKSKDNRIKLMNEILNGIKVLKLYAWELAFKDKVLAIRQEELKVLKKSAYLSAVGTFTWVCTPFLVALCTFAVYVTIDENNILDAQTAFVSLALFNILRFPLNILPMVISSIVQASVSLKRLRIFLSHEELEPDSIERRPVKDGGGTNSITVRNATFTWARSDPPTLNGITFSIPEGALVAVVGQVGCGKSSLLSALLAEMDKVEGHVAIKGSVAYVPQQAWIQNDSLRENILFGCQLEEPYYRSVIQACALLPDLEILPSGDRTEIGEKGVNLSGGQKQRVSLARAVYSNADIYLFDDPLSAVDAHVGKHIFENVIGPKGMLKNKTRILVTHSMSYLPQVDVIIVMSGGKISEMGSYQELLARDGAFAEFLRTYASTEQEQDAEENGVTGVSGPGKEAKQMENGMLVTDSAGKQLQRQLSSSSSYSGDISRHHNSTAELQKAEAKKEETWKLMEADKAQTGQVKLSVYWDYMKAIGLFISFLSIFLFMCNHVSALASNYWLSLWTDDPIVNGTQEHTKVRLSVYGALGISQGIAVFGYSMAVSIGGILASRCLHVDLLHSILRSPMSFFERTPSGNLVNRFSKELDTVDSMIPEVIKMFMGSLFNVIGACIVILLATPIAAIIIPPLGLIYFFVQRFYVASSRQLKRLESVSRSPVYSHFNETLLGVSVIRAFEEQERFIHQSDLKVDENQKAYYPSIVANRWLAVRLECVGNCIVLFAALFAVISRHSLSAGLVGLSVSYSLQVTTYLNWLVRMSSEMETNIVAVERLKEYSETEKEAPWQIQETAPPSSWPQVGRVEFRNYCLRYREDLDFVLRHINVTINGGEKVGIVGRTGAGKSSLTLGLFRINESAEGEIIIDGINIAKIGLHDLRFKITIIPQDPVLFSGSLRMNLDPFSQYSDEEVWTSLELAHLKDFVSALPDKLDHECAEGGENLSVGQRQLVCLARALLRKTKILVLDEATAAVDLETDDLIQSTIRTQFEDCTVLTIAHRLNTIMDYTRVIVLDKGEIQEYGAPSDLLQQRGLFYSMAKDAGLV
T2 sequence (P08183 whole entry): as the sequence (P08183 whole entry) above

Compound: COc1ccc2c3c([nH]c2c1)[C@H](CC(C)C)N1C(=O)[C@H](CCC(=O)OC(C)(C)C)NC(=O)[C@@H]1C3 [Ko143]
Inhibition of calcein accumulation ([1]; primary CD4+ T cells, low doses (<1 μM) of Ko143, data not shown): null inhibition

Compound: CC(C)(C)NC(=O)[C@@H]1CN(Cc2cccnc2)CCN1C[C@@H](O)C[C@@H](Cc1ccccc1)C(=O)N[C@H]1c2ccccc2C[C@H]1O [indinavir]
Fluorescence ratio (MFI treated/MFI mock cells), calcein [2]: 1.28
Fluorescence ratio (MFI treated/MFI mock cells), calcein [3]: 2.11

Compound: Cc1ccnc2c1NC(=O)c1cccnc1N2C1CC1 [nevirapine]
Fluorescence ratio (MFI treated/MFI mock cells), calcein [2]: 0.92
Fluorescence ratio (MFI treated/MFI mock cells), calcein [3]: 1.23

Compound: COC(=O)N[C@H](C(=O)N[C@@H](Cc1ccccc1)[C@@H](O)CN(Cc1ccc(-c2ccccn2)cc1)NC(=O)[C@@H](NC(=O)OC)C(C)(C)C)C(C)(C)C [atazanavir]
Fluorescence ratio (MFI treated/MFI mock cells), calcein [2]: 0.63
Fluorescence ratio (MFI treated/MFI mock cells), calcein [3]: 2.54

Compound: CN(C)C(=O)CCSC(SCCC(=O)O)c1cccc(/C=C/c2ccc3ccc(Cl)cc3n2)c1 (stereo not shown) [MK571]
Effect of efflux inhibitor on [3H]raltegravir CAR [4]: did not affect

Compound: O=C1Nc2ccc(Cl)cc2[C@@](C#CC2CC2)(C(F)(F)F)O1 [efavirenz]
Fluorescence ratio (MFI treated/MFI mock cells), calcein [2]: 0.94
Fluorescence ratio (MFI treated/MFI mock cells), calcein [3]: 4.38

Compound: Cc1cccc(C)c1OCC(=O)N[C@@H](Cc1ccccc1)[C@@H](O)C[C@H](Cc1ccccc1)NC(=O)[C@H](C(C)C)N1CCCNC1=O [lopinavir]
Fluorescence ratio (MFI treated/MFI mock cells), calcein [2]: 0.60
Fluorescence ratio (MFI treated/MFI mock cells), calcein [3]: 4.20

Compound: CC(C)CN(C[C@@H](O)[C@H](Cc1ccccc1)NC(=O)O[C@H]1CCOC1)S(=O)(=O)c1ccc(N)cc1 [amprenavir]
Fluorescence ratio (MFI treated/MFI mock cells), calcein [2]: 0.87
Fluorescence ratio (MFI treated/MFI mock cells), calcein [3]: 3.49

Compound: XR9051
Effect of efflux inhibitor on [3H]raltegravir CAR [4]: did not significantly alter; also recorded: did not affect
Effect of efflux inhibitor on [3H]raltegravir CAR ([5]; CEM-P-gp, XR9051 10 μM or 1 μM (Figure 1a)): significantly increased accumulation
Effect of XR9051 on reduced [3H]raltegravir accumulation ([9]; CD3+CD4+P-gp^high cells): significantly reverse this effect
Effect of XR9051 on reduced [3H]raltegravir accumulation ([9]; total unsorted PBMCs): could also be reversed
Effect on activity of P-gp^high cells (calcein efflux) ([1]; non-stimulated CD4+ cells, XR9051 1 μM during the 2 h efflux time): remarkably inhibited
Effect of efflux inhibitor on [3H]raltegravir CAR ([7]; CEM-MRP1, MK571 100 μM, XR9051 10 μM): neither MK571 nor XR9051 affected

Further lines, with some results ahead:

CAR of raltegravir ([4]; accumulation experiments (Figure 1b), normalized to 100%): 3.04 ± 0.62
CAR of raltegravir ([4]; time-course (Figure 1a)): 3.12 ± 0.12
CAR of raltegravir ([5]; CEM-P-gp, [3H]raltegravir 1 μM, co-incubation with XR9051 1 μM, P = 0.0025): 2.46 ± 0.10
Reduction in intracellular raltegravir accumulation with respect to CEM-WT ([5]; untreated CEM-P-gp): 52%
CAR raltegravir P-gp/CAR raltegravir WT ([5]; untreated cells, P < 0.0001): 0.48
Increase of the CAR of [3H]ritonavir by 100 μM cold drug [6]: did not inhibit
Effect of 100 μM cold drug (cis inhibitor) on [3H]raltegravir CAR ([7]; CEM-MRP1): no changes
Reduction in intracellular raltegravir accumulation with respect to control CEM-WT cells ([7]; untreated CEM-MRP1): > 30%
CAR raltegravir MRP1/CAR raltegravir WT ([7]; untreated cells, P < 0.0001): 0.64
Compound: Cc1nnc(C(=O)NC(C)(C)c2nc(C(=O)NCc3ccc(F)cc3)c(O)c(=O)n2C)o1 [raltegravir]
Effect of 100 μM cold drug (cis inhibitor) on [3H]raltegravir CAR [4]: no changes

Effect of reversan on reduced [3H]ritonavir accumulation ([6]; reversan 10 μM, P = 0.037): reversed in part
Effect of reversan on reduced [3H]ritonavir accumulation [8]: reversed in part
Compound: O=C(NCCCN1CCOCC1)c1cnn2c(-c3ccccc3)cc(-c3ccccc3)nc12 [reversan]

Increase of the CAR of [3H]ritonavir by 100 μM cold drug [6]: 25%
Effect of 100 μM cold drug (cis inhibitor) on [3H]raltegravir CAR ([7]; CEM-MRP1): did not affect
Compound: CC(C)c1nc(CN(C)C(=O)N[C@H](C(=O)N[C@@H](Cc2ccccc2)C[C@H](O)[C@H](Cc2ccccc2)NC(=O)OCc2cncs2)C(C)C)cs1 [ritonavir]
Effect of 100 μM cold drug (cis inhibitor) on [3H]raltegravir CAR [4]: did not affect

Fluorescence ratio (MFI treated/MFI mock cells), calcein [3]: 3.94
Effect of 100 μM cold drug (cis inhibitor) on [3H]raltegravir CAR ([7]; CEM-MRP1): did not affect
Compound: CC(C)(C)NC(=O)[C@@H]1C[C@@H]2CCCC[C@@H]2CN1C[C@@H](O)[C@H](Cc1ccccc1)NC(=O)[C@H](CC(N)=O)NC(=O)c1ccc2ccccc2n1 [saquinavir]
Fluorescence ratio (MFI treated/MFI mock cells), calcein [2]: 0.77
Effect of 100 μM cold drug (cis inhibitor) on [3H]raltegravir CAR [4]: did not affect
Effect of 100 μM cold drug (cis inhibitor) on [3H]raltegravir CAR ([5]; CEM-P-gp, [3H]raltegravir 1 μM): significantly competed with raltegravir efflux
